Molecular target: T1, PelD^Bc (PelD^Bc150-407; also PelD^Bc170-403)
T1 construct: gene BCE_5583
Settings: 20 mM HEPES pH 8.0, 150 mM NaCl, 5% glycerol, 1 mM DTT; 25 μM protein, 450 μM c-di-GMP in syringe; single-site model; proposed I-site (RxxD)

In the case of `Nc1nc2c(ncn2[C@@H]2O[C@@H]3COP(=O)(O)O[C@H]4[C@@H](O)[C@H](n5cnc6c(=O)[nH]c(N)nc65)O[C@@H]4COP(=O)(O)O[C@H]3[C@H]2O)c(=O)[nH]1` [c-di-GMP], the Kd is reported as 103 ± 14 nM.
